Assay results taken from patent publication US20100190849A1, “Novel Clerodanes and Methods for Repelling Arthropods” (priority 2006, published 2010).
Marks after values point to notes of the source that are not given here.

How the values were obtained:
Format in all cases: in vivo
[1] = system: Aedes aegypti; assay: K & D module mosquito anti-biting (repellent) bioassay
Description: Insects: Ae. aegypti(L.) (red eye Liverpool strain) and An. stephensi Liston used in the study were from colonies maintained at the Walter Reed Army Institute of Research, Silver Spring, Md. […] Adults were maintained in a photoperiod of 12:12 (L:D) h at 27° C. and 80% RH with cotton pads moistened with 10% aqueous sucrose solution. Mated females were 5-15 d old when they were used in bioassays. Ae. aegypti females had access only to water 24 h and neither food nor water for another 24 h before testing. An. stephensi females were provided with water alone 24 h before testing.
Routinely, a six-celled K & D module containing five mosquitoes/cell was positioned over cloth treatments covering the six blood-membrane wells, and trap doors of the K&D modules were opened to expose the treatments to the sets of mosquitoes. After a 3 minute exposure, the number of mosquitoes biting through cloth treatments in each cell was recorded and mosquitoes were prodded back into the cells. […] Experiments were replicated 12, 18, 32, or 56 times. Thus, 60, 90, 160. or 280 mosquitoes were tested against each treatment depending on the experiment, and the proportion of mosquitoes not biting for each treatment was calculated. For each experiment, conducted in different time periods, logistic regression was used to make two sets of one degree-of-freedom contrasts (t-tests): treatments vs. control and treatments vs. SS220 for anti-biting activity within each experiment. The level of significance was set at P=0.05. In all, we conducted 8 biological experiments, and all experiments used Ae. aegypti as the test mosquito with exception of Experiment 7 which used An. stephensi.
Each experiment was replicated 18 times.
Experiments 3, 4, and 5: In each of these experiments, chromatographic fractions of essential oil at their respective percentage compositions of 100 μg essential oil/cm^2 cloth, 100 μg unfractionated essential oil/cm^2 cloth, 25 nmol SS-220/cm^2 cloth and control were compared for mosquito anti-biting activity. Each experiment was replicated 18 times.
(§1) Experiments 6 and 7: These experiments compared the anti-biting activities of SS-220, and plant-isolated callicarpenal, humulene epoxide II, intermedeol and spathulenol at 25 nmol compound/cm^2 cloth versus control against Ae. aegypti and An. stephensi, respectively. Experiment 6 was replicated 32 times and 7 had 56 replicates
The percentage composition of the mixture was a normalized percentage of active components in C. japonica essential oil based upon GC-MS analysis total ion Area % analysis based on largest peaks. Other treatments in the experiment were SS220, callicarpenal, intermedeol, and spathulenol each at 25 nmol/cm^2 cloth versus control.

[2] = system: Aedes aegypti; assay: Total mosquito toxic knockdown after K & D module exposure (Experiment 8); settings: Exp. 8, 25 nmol/cm^2 cloth; for Total Knock down 6 min: dead mosquitoes 6 min post-treatment exposure; for Total knock down 1 hr: dead mosquitoes 1 hr post-treatment exposure; for Total knock down 24 hr: dead mosquitoes 24 hr post-treatment exposure
From the text: (§2) Plant extracts, fractions, or isolated pure plant derived compounds in 95% ethanol solution were each randomly applied to six-4×5 cm areas of organdy cloth and positioned over the membrane-covered blood. A replicate consisted of six treatments: four test chemicals or extract fractions, 95% ethanol treated cloth as control and unfractionated plant extract or a standard repellent compound, (1S, 2′S)-2-methylpiperidinyl-3-cyclohexen-1-carboxamide (SS220) at 25 nmol/cm^2 cloth. The 25 nmol SS220/cm^2 cloth dose was used as a standard, because it was known from human volunteer and in vitro assays to consistently suppress mosquito biting by 80% or more compared to controls in replicated assays (Klun, J. A., et al., Journal of the American Mosquito Control Association, 21: 64-70 (2005)). […] Routinely, a six-celled K & D module containing five mosquitoes/cell was positioned over cloth treatments covering the six blood-membrane wells, and trap doors of the K&D modules were opened to expose the treatments to the sets of mosquitoes. After a 3 minute exposure, the number of mosquitoes biting through cloth treatments in each cell was recorded and mosquitoes were prodded back into the cells. In Experiment 8, we retained all mosquitoes in their respective K&D module cells, each fitted with a water-moist piece of cotton, and observed the mosquitoes for total mosquito toxic knockdown at 6 min, 1 hr, and 24 hr post-treatment exposure. Experiments were replicated 12, 18, 32, or 56 times. Thus, 60, 90, 160. or 280 mosquitoes were tested against each treatment depending on the experiment, and the proportion of mosquitoes not biting for each treatment was calculated. For each experiment, conducted in different time periods, logistic regression was used to make two sets of one degree-of-freedom contrasts (t-tests): treatments vs. control and treatments vs. SS220 for anti-biting activity within each experiment. The level of significance was set at P=0.05. In all, we conducted 8 biological experiments, and all experiments used Ae. aegypti as the test mosquito with exception of Experiment 7 which used An. stephensi.
Experiment 8: This experiment (12 replicates) compared the antibiting activities of a mixture (25 nmol/cm^2 cloth) of 11.5% callicarpenal, 47.1% intermedeol, and 41.4% spathulenol. The percentage composition of the mixture was a normalized percentage of active components in C. japonica essential oil based upon GC-MS analysis total ion Area % analysis based on largest peaks. Other treatments in the experiment were SS220, callicarpenal, intermedeol, and spathulenol each at 25 nmol/cm^2 cloth versus control. In addition to measurement of anti-biting activity, the number of dead mosquitoes observed at three time intervals were recorded for the six treatments.

[3] = system: Anopheles stephensi; assay: K & D module mosquito anti-biting (repellent) bioassay; settings: 25 nmol compound/cm^2 cloth; for Proportion Not Biting: Exp. 7, 56 replicates; for repellent activity (in words): Experiment 7
From the text: Insects: Ae. aegypti(L.) (red eye Liverpool strain) and An. stephensi Liston used in the study were from colonies maintained at the Walter Reed Army Institute of Research, Silver Spring, Md. The insects were reared by feeding larvae ground tropical fish flakes (Tetramin Tropical Fish Flakes, Tetra Sales, Blacksburg, Va., www.tetra-fish.com)(Gerberg, E. j., et al., Manual for mosquito rearing and experimental techniques. Amer. Mosq. Control Assoc. Bull. No. 5 (revised), 1994, AMCA. inc., Lake Charles, La.). Adults were maintained in a photoperiod of 12:12 (L:D) h at 27° C. and 80% RH with cotton pads moistened with 10% aqueous sucrose solution. Mated females were 5-15 d old when they were used in bioassays. Ae. aegypti females had access only to water 24 h and neither food nor water for another 24 h before testing. An. stephensi females were provided with water alone 24 h before testing.
Mosquito Bioassay Methods: Experiment were conducted by using, a six-celled in vitro Klun & Debboun (K & D) module bioassay system developed by klun et al. (Klum J. A., et al., Journal of the American Mosquito Control Association. 21: 64-70 (2005)) for quantitative, evaluation of mosquito-repellent (anti-biting) properties of candidate repellent compounds for human use.
as §2, §1

[4] = Exp. 6, 25 nmol compound/cm^2 cloth, 32 replicates
[5] = Exp. 8, 25 nmol/cm^2 cloth, 12 replicates
[6] = Experiment 6, 25 nmol compound/cm^2 cloth
[7] = Experiment 8, 25 nmol/cm^2 cloth

Structure (SMILES) | Proportion Not Biting [1, 4] | Proportion Not Biting [1, 5] | repellent activity (in words) [1, 6] | repellent activity (in words) [1, 7] | Total Knock down 6 min [2] | Total knock down 1 hr [2] | Total knock down 24 hr [2] | Proportion Not Biting [3] | repellent activity (in words) [3] | Proportion Not Biting ([1]; Table 7, Example 2, synthetic compounds, dose not given) | Proportion Not Biting ([1]; Table 8, Example 3, synthetic compounds, dose not given)
C=C(C)C1CCC2(C)CCCC(C)(O)C2C1 [intermedeol, (4S,5S,7R,10S)-eudesm-11-en-4-ol] | 0.70^b | 0.62^c | significant activity | high repellent activity that was comparable to SS220 | 1 | 1 | 2 | 0.72^c | as effective as SS220 | – | –
CC1=CCC[C@@H]2[C@@](C)(CC=O)[C@H](C)CC[C@@]12C [callicarpenal, 13,14,15,16-tetranorclerod-3-en-12-al] | 0.70^b | 0.73^a | significant activity | high repellent activity that was comparable to SS220 | 0 | 1 | 5 | 0.75^c | as effective as SS220 | 0.70^b | 0.73^b
